Laboratory results published in patent US7105531B2, “Tricyclic protein kinase inhibitors” (WYETH, priority 1999, dated 2006).
Counter-ions that a name gives are not always drawn.

In the case of `COc1cc2cc3ncc(C#N)c(Nc4ccc(F)c(Cl)c4)c3cc2cc1OC` (as salt: salt) [Example 13, 4-(3-Chloro-4-fluoroanilino)-7,8-dimethoxybenzo[g]quinoline-3-carbonitrile], the melting point is reported as > 280 °C.
With `COc1cc(Nc2c(C#N)cnc3nc4cc(OCCN5CCN(C)CC5)c(OC)cc4cc23)c(Cl)cc1Cl` [Example 175, 4-(2,4-Dichloro-5-methoxyanilino)-7-methoxy-8-[2-(4-methyl-1-piperazinyl)ethoxy]benzo[b][1,8]naphthyridine-3-carbonitrile] the melting point was 240 to 243 °C (dec.).
`N#Cc1cnc2c(sc3ccccc32)c1Nc1cccc(Br)c1` [Example 65, 4-(3-Bromophenylamino)benzo[4,5]thieno[3,2-b]pyridine-3-carbonitrile] showed a melting point of 240 to 242 °C.
Work on `COc1cc(Nc2c(C#N)cnc3cc4cc(OC)c(OCCN5CCOCC5)cc4cc23)c(Cl)cc1C` yielded a melting point of 240 to 241 °C.
`COc1cc2cc3c(Nc4ccc(Sc5nccn5C)c(Cl)c4)c(C#N)cnc3cc2cc1OCCn1ccnn1` [Example 154, 4-[3-Chloro-4-(1-methyl-1H-imidazol-2-ylsulfanyl)phenylamino]-7-methoxy-8-(2-[1,2,3]triazol-1-yl-ethoxy)benzo[g]quinoline-3-carbonitrile] showed a melting point of 201 to 207 °C.
With `N#Cc1cnc2cc3ccc(O)cc3cc2c1Nc1ccc(Cl)cc1Cl` [Example 105, 4-(2,4-Dichloroanilino)-7-hydroxybenzo[g]quinoline-3-carbonitrile] the melting point was > 300 °C.
For `N#Cc1cnc2cc3cc(O)c(O)cc3cc2c1Nc1ccc(Cl)cc1Cl` [Example 15, 4-(2,4-Dichloroanilino)-7,8-dihydroxybenzo[g]quinoline-3-carbonitrile], the melting point was > 260 °C.
In the case of `N#Cc1cnc2c(oc3ccccc32)c1Nc1ccc(Cl)cc1F` [Example 86, 4-(4-Chloro-2-fluorophenylamino)benzo[4,5]furo[3,2-b]pyridine-3-carbonitrile], the melting point is reported as 259 to 261 °C.
Work on `COc1cc2cc3ncc(C#N)c(Nc4ccc(OCc5ccccc5)c(Cl)c4)c3cc2cc1OCCCl` [Example 186, 4-(4-Benzyloxy-3-chlorophenylamino)-7-(2-chloroethoxy)-8-methoxybenzo[g]quinoline-3-carbonitrile] yielded a melting point of 182 to 185 °C.
For `C=CC(=O)Nc1ccc2sc3c(Nc4cccc(Br)c4)c(C#N)cnc3c2c1` [Example 93, N-[4-(3-Bromoanilino)-3-cyano[1]benzothieno[3,2-b]pyridin-8-yl]acrylamide], the melting point was > 300 °C (dec.).
For `COc1cc2cc3c(Nc4ccc(Cl)cc4Cl)c(C#N)cnc3nc2cc1OC` [Example 177, 4-(2,4-Dichloroanilino)-7,8-dimethoxybenzo[b][1,8]naphthyridine-3-carbonitrile], the melting point was 266 to 270 °C (dec.).
With `COc1cc(Nc2c(C#N)cnc3cc4cc(OCCCl)c(OC)cc4cc23)c(Cl)cc1Cl` [Example 126, 4-(2,4-dichloro-5-methoxyanilino)-7-methoxy-8-(chloroethoxy)benzo[g]quinoline-3-carbonitrile] the melting point was 239 to 255 °C (dec.).
For `COc1ccc2cc3c(Nc4ccc(Cl)cc4Cl)c(C#N)cnc3cc2c1` [Example 104, 4-(2,4-Dichloroanilino)-8-methoxybenzo[g]quinoline-3-carbonitrile], the melting point was > 260 °C.
`COc1cc(Nc2c(C#N)cnc3cc4cc(OCCCCl)c(OC)cc4cc23)c(Cl)cc1Cl` [Example 156, 8-(3-Chloropropoxy)-4-(2,4-dichloro-5-methoxyphenylamino)-7-methoxybenzo[g]quinoline-3-carbonitrile] showed a melting point of 220 to 223 °C.
With `N#Cc1cnc2c(sc3ccc(N)cc32)c1Nc1cccc(Br)c1` [Example 92, 8-Amino-4-(3-bromoanilino)-[1]benzothieno[3,2-b]pyridine-3-carbonitrile] the melting point was 295 to 300 °C (dec.).
With `COc1ccc2cc3ncc(C#N)c(Nc4ccc(Cl)cc4Cl)c3cc2c1` [Example 103, 4-(2,4-Dichloroanilino)-7-methoxybenzo[g]quinoline-3-carbonitrile] the melting point was 215 to 217 °C.
With `N#Cc1cnc2c(sc3c(N)cccc32)c1Nc1cccc(Br)c1` [Example 81, 6-Amino-4-(3-bromoanilino)[1]benzothieno[3,2-b]pyridine-3-carbonitrile] the melting point was 256 to 258 °C.
Work on `N#Cc1cnc2c(sc3ccccc32)c1Oc1ccc(Cl)cc1F` [Example 71, 4-(4-Chloro-2-fluorophenoxy)benzo[4,5]thieno[3,2-b]pyridine-3-carbonitrile] yielded a melting point of 174 to 175 °C.
In the case of `COc1cc2cc3c(Nc4ccc(Sc5nccn5C)c(Cl)c4)c(C#N)cnc3cc2cc1OCCCCl` [Example 150, 4-[3-Chloro-4-(1-methyl-1H-imidazol-2-ylsulfanyl)phenylamino]-8-(3-chloropropoxy)-7-methoxybenzo[g]quinoline-3-carbonitrile], the melting point is reported as > 300 °C.
For `N#Cc1cnc2c(c1Nc1ccc(Oc3ccccc3)cc1)C=C1N=C(N)N=C1C2` [Example 34, 2-Amino-8-(4-phenoxyanilino)imidazo[4,5-g]quinoline-7-carbonitrile], the melting point was > 300 °C.
`C=CC(=O)Nc1cccc2c1sc1c(Nc3cccc(Br)c3)c(C#N)cnc12` [Example 94, N-[4-(3-Bromoanilino)-3-cyano[1]benzothieno[3,2-b]pyridin-6-yl]acrylamide] showed a melting point of 286 to 287 °C.
For `COc1cc2cc3c(Nc4cc(OC)c(Cl)cc4Cl)c(C#N)cnc3cc2cc1O` [Example 155, 4-(2,4-Dichloro-5-methoxyphenylamino)-8-hydroxy-7-methoxybenzo[g]quinoline-3-carbonitrile], the melting point was 238 to 240 °C.
For `N#Cc1cnc2c(sc3ccc([N+](=O)[O-])cc32)c1Nc1ccc(Cl)cc1Cl` [Example 90, 4-(2,4-Dichloroanilino)-8-nitro[1]benzothieno[3,2-b]pyridine-3-carbonitrile], the melting point was 210 to 213 °C.
`COc1cc2cc3ncc(C#N)c(Nc4ccc(Cl)cc4Cl)c3cc2cc1OC` [Example 14, 4-(2,4-Dichloroanilino)-7,8-dimethoxybenzo[g]quinoline-3-carbonitrile] showed a melting point of 271 to 273 °C.
In the case of `COc1cc2cc3c(Nc4ccc(Sc5nccn5C)c(Cl)c4)c(C#N)cnc3cc2cc1OCCCN1CCOCC1` [Example 151, 4-[3-Chloro-4-(1-methyl-1H-imidazol-2-ylsulfanyl)phenylamino]-7-methoxy-8-(3-morpholin-4-yl-propoxy)benzo[g]quinoline-3-carbonitrile], the melting point is reported as 230 to 235 °C.
With `COc1cc2cc3ncc(C#N)c(Nc4cc(OC)c(OC)c(OC)c4)c3cc2cc1OCCN1CCN(C)CC1` the melting point was 115 to 120 °C (dec.).
Work on `N#Cc1cnc2c(sc3ccccc32)c1Nc1ccc(Cl)cc1F` [Example 66, 4-(4-Chloro-2-fluorophenylamino)benzo[4,5]thieno[3,2-b]pyridine-3-carbonitrile] yielded a melting point of 250 to 251 °C.
With `COc1cc2cc3c(Nc4cc(OC)c(OC)c(OC)c4)c(C#N)cnc3nc2cc1OC` [Example 178, 7,8-Dimethoxy-4-(3,4,5-trimethoxyanilino)benzo[b][1,8]naphthyridine-3-carbonitrile] the melting point was 250 to 252 °C (dec.).
In the case of `COc1cc2cc3c(Nc4ccc(Sc5nccn5C)c(Cl)c4)c(C#N)cnc3cc2cc1OCCN1CCN(C)CC1` [Example 152, 4-[3-Chloro-4-(1-methyl-1H-imidazol-2-ylsulfanyl)phenylamino]-7-methoxy-8-[2-(4-methylpiperazin-1-yl)ethoxy]-benzo[g]quinoline-3-carbonitrile], the melting point is reported as 184 to 186 °C.
`COc1cc(Nc2c(C#N)cnc3cc4cc(OCCN5CCC(O)CC5)c(OC)cc4cc23)c(Cl)cc1C` gave a melting point of 210 to 215 °C.
For `COc1cc(Nc2c(C#N)cnc3c2C=C2N=C(CN4CCOCC4)N=C2C3)cc(OC)c1OC` [Example 48, 2-(4-Morpholinylmethyl)-8-(3,4,5-trimethoxyanilino)imidazo[4,5-g]quinoline-7-carbonitrile], the melting point was 258 to 260 °C (dec.).
For `COc1cc2cc3c(Nc4ccc(F)c(Cl)c4)c(C#N)cnc3cc2cc1OCCN1CCOCC1` [Example 205, 4-(3-Chloro-4-fluoroanilino)-7-methoxy-8-[2-(4-morpholinyl)ethoxy]benzo[g]quinoline-3-carbonitrile], the melting point was 237 to 242 °C.
`N#Cc1cnc2c(oc3ccccc32)c1Oc1ccc(Cl)cc1F` [Example 89, 4-(4-Chloro-2-fluorophenoxy)-benzo[4,5]furo[3,2-b]pyridine-3-carbonitrile] showed a melting point of 138 to 140 °C.
In the case of `CCOc1cc2cc3c(Nc4cc(OC)c(Cl)cc4C)c(C#N)cnc3cc2cc1OCCCl` [Example 179, 8-(2-Chloroethoxy)-4-(4-chloro-5-methoxy-2-methylanilino)-7-ethoxybenzo[g]quinoline-3-carbonitrile], the melting point is reported as 129 to 130 °C.
Work on `N#Cc1cnc2cc3ccccc3cc2c1Nc1ccc(F)c(Cl)c1` [Example 4, 4-(3-Chloro-4-fluoroanilino)benzo[g]quinoline-3-carbonitrile] yielded a melting point of 257 to 259 °C.
For `N#Cc1cnc2cc3c(cc2c1Nc1ccc(Oc2ccccc2)cc1)ncn3CCN1CCOCC1` [Example 58, 3-[2-(4-Morpholinyl)ethyl]-8-(4-phenoxyanilino)-3H-imidazo[4,5-g]quinoline-7-carbonitrile], the melting point was > 260 °C.
For `COc1ccc(C)c(Nc2c(C#N)cnc3c2C=C2N=C(NCCN4CCOCC4)N=C2C3)c1` [Example 31, 8-(5-Methoxy-2-methylanilino)-2-{[2-(4-morpholinyl)ethyl]amino}imidazo [4,5-g]quinoline-7-carbonitrile], the melting point was 148 to 150 °C.
Work on `N#Cc1cnc2c(oc3ccccc32)c1Nc1ccc(Oc2ccccc2)cc1` [Example 88, 4-(4-Phenoxyphenylamino)benzo[4,5]furo[3,2-b]pyridine-3-carbonitrile] yielded a melting point of 175 to 179 °C.
Molecule `N#Cc1cnc2cc3cc(O)ccc3cc2c1Nc1ccc(Cl)cc1Cl` [Example 106, 4-(2,4-Dichloroanilino)-8-hydroxybenzo[g]quinoline-3-carbonitrile] has a melting point of 267 to 269 °C.
In the case of `COc1cc(Nc2c(C#N)cnc3cc4cc(OCCN5CCOCC5)c(OC)cc4cc23)c(Cl)cc1F`, the melting point is reported as 206 to 222 °C.
With `COc1cc(Nc2c(C#N)cnc3cc4cc(OCCN5CCC(O)CC5)c(OC)cc4cc23)c(Cl)cc1Cl` the melting point was 193 to 198 °C.
